{"source": "paper PMC8041276", "about": "(ACS Chemical Neuroscience, 2021)", "key": {"5-HT7R": {"biological_target": "T1, 5-HT7R (Homo sapiens, UniProt P34969)", "T1 construct": "expressed in transfected cells", "T1 sequence (P34969 1-432)": "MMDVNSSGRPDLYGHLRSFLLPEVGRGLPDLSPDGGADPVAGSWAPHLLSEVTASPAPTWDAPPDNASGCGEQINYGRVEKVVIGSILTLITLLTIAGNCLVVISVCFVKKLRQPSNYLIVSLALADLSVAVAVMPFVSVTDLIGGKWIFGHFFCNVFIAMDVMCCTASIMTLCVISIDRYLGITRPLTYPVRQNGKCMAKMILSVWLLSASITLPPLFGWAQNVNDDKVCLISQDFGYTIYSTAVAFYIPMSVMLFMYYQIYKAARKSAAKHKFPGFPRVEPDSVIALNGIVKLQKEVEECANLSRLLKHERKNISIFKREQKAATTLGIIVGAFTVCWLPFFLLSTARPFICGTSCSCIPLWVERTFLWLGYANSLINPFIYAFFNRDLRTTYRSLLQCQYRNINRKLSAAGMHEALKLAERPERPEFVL", "assay": "[3H]-5-CT radioligand binding assay, HEK293 cells", "details": "mean of three experiments", "description": "(§1) All experiments were carried out according to the previously published procedures.[41]−[43] HEK293 cells stably expressing human 5-HT1A, 5-HT6, 5-HT7b, and D2L receptors (prepared with the use of Lipofectamine 2000) or CHO-K1 cells with plasmid containing the sequence coding for the human serotonin 5-HT2A receptor (PerkinElmer) were maintained at 37 °C in a humidified atmosphere containing 5% CO2 and grown in Dulbecco’s modified Eagle’s medium containing 10% dialyzed fetal bovine serum and 500 μg/mL G418 sulfate. For membrane preparation, cells were cultured in 150 cm^2 flasks, grown to 90% confluence, washed twice with prewarmed to 37 °C phosphate buffered saline (PBS), and centrifuged (200g) in PBS containing 0.1 mM EDTA and 1 mM dithiothreitol. Prior to membrane preparation, pellets were stored at −80 °C. Cell pellets were thawed and homogenized in 10 volumes of assay buffer using an Ultra Turrax tissue homogenizer and centrifuged twice at 35 000g for 15 min at 4 °C, with incubation for 15 min at 37 °C between the centrifugations. The composition of the assay buffers was experimentally selected to achieve the maximum signal window (more details in Supporting Information). All assays were carried out in a total volume of 200 μL in 96-well plates for 1 h at 37 °C except 5-HT1AR and 5-HT2AR which were incubated at room temperature and 27 °C, respectively. The process of equilibration was terminated by rapid filtration through Unifilter plates with a 96-well cell harvester, and radioactivity retained on the filters was quantified on a Microbeta plate reader (PerkinElmer, USA). For displacement studies the assay samples contained the following as radioligands (PerkinElmer, USA): 2.5 nM [^3H]-8-OH-DPAT (135.2 Ci/mmol) for 5-HT1AR; 1 nM [^3H]-ketanserin (53.4 Ci/mmol) for 5-HT2AR; 2 nM [^3H]-LSD (83.6 Ci/mmol) for 5-HT6R; 0.8 nM [^3H]-5-CT (39.2 Ci/mmol) for 5-HT7R or 2.5 nM [^3H]-raclopride (76.0 Ci/mmol) for D2LR. Nonspecific binding was defined in the presence of 10 μM 5-HT in 5-HT1AR and 5-HT7R binding experiments, whereas 20 μM mianserin, 10 μM methiothepine, and 10 μM haloperidol were used in 5-HT2AR, 5-HT6R, and D2LR assays, respectively. Each compound was tested in triplicate at seven concentrations (10^–10–10^–4 M). The inhibition constants (Ki) were calculated from the Cheng–Prusoff equation.[44]"}, "D2R": {"biological_target": "T2, D2R (Homo sapiens, UniProt P14416)", "T2 construct": "expressed in transfected cells", "T2 sequence (P14416 whole entry)": "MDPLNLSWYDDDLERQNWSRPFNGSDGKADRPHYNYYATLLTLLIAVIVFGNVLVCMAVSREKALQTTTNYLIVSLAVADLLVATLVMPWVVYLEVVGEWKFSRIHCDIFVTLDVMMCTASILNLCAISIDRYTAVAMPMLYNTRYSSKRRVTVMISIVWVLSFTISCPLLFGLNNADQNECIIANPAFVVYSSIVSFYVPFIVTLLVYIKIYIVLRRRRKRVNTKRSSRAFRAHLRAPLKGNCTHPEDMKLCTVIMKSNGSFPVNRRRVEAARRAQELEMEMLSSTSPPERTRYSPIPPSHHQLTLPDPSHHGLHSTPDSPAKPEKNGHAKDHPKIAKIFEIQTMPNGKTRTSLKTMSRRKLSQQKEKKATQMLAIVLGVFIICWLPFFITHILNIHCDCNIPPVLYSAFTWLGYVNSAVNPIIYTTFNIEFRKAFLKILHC", "assay": "[3H]-raclopride radioligand binding assay, HEK293 cells", "details": "mean of three experiments", "description": "as §1"}, "[1]": {"assay": "In vivo pharmacokinetic study, plasma and brain", "design": "species or system male Wistar rats", "details": "male, Wistar, po, rat; for AUC(0-t) / Cmax / MRT / Tmax / half-life: 10 mg/kg p.o.; for half-life: read-out: t0.5 (terminal half-life)", "description": "Subsequently, the pharmacokinetic profile of 27 and 28 was assessed in male Wistar rats after single intragastric administration at the dose of 10 mg/kg. The studied compounds were rapidly absorbed and crossed the blood–brain barrier, reaching the Cmax in 5 min in both plasma and brain.\nFor LC–MS/MS analyses, an HPLC Nexera system (Shimadzu, Kyoto, Japan) combined with the triple quadrupole API 3200 mass spectrometer (SCIEX, Framingham, MA, USA) interfaced via an electrospray source and controlled by Analyst software version 1.5.2 (SCIEX, Framingham, MA, USA) was applied.\nThe chromatographic separation was performed on Acclaim Polar Advantage II (3.0 mm × 74 mm, 3 μm, 120A, Dionex, USA) analytical column using the mobile phase composed of eluent A, HPLC grade acetonitrile acidified with 0.1% (v/v) formic acid, and eluent B, HPLC grade water with 0.1% (v/v) formic acid. The elution gradient started with 90% of eluent B, increasing to 90% of eluent A over 5 min, returned to 90% of eluent B over 5 min, and maintained at 90% of eluent B for 5 min. The mobile phase flow rate was set at 400 μL/min. The injection volume was 20 μL, and the total time of analysis was 15 min. The temperatures of the column thermostat and the autosampler were set at 40 and 10 °C, respectively.\nFor increased sensitivity and selectivity, the MS/MS data acquisition was performed in the selected reaction monitoring (SRM) mode. The ions measured were m/z 585.1 (Q1) and m/z 516.2 (Q3) for compounds 27 and 28 and m/z 305 (Q1) and m/z 248 (Q3) for IS. The quantification was done via peak area ratio.\nProtein precipitation with acetonitrile was used for purification of plasma and brain homogenates. The whole brain was homogenized using an electric tissue homogenizer in an appropriate amount of phosphate buffer (pH 7.4) in 1:2.5 ratio. Thereafter, a volume of 100 μL of plasma or brain homogenate was transferred to 2 mL Eppendorf tubes, and a 5 μL aliquot of the internal standard (IS, PH002437, Merck, Darmstadt, Germany) in working solution (5 μg/mL) was added and vortex-mixed for 10 s. Thereafter, 200 μL of acetonitrile was added and mixed for 20 min, followed by centrifugation (28 672g) for 10 min at 4 °C. The supernatant was transferred to chromatographic vials, and 20 μL was injected into the analytical column.\nA group of 64 male, 8-week-old, Wistar strain outbred rats weighing between 200 and 220 g each were purchased from the Animal House at the Faculty of Pharmacy, Jagiellonian University Medical College, Krakow (Poland) and housed in standard polycarbonate cages, in groups of four animals per cage. Environmental conditions during the study were constant: relative humidity 50–60%, temperature 22 ± 2 °C, normal 12 h light–dark cycle (7 a.m. to 7 p.m. light). Standard rodent chow and water were available ad libitum. Compounds 27 and 28 were dissolved in saline and administered by intragastric gavage at a dose of 10 mg/kg, and the animals were sacrificed at specific time-points: 0 min, predose (n = 4), 5 min (n = 4), 15 min (n = 4), 30 min (n = 4), 60 min (n = 4), 120 min (n = 4), 240 min (n = 4), and 480 min (n = 4) after administration. Animals were deeply anaesthetized by ip injections of 50 mg/kg ketamine plus 8 mg/kg xylazine before sacrifice. First, the blood was collected into heparinized tubes, and the blood samples were centrifuged at 1000g for 10 min to obtain plasma. Following the animals’ euthanasia, the whole brain was collected. The plasma and brain samples were immediately frozen at −80 °C for future analysis. All experimental procedures were carried out in accordance with EU Directive 2010/63/EU and approved by the I Local Ethics Committee for Experiments on Animals of the Jagiellonian University in Krakow, Poland (No. 83/2018)."}}, "note": "Like-named read-outs stand apart in the source and are kept apart here.", "data": [{"smiles": "O=C(N[C@H]1CCNC1)c1ccn(S(=O)(=O)c2cccc(Cl)c2)c1-c1ccc(F)cc1", "note": "[Compound 28, (S)-2-(4-Fluorophenyl)-1-[(3-chlorophenyl)sulfonyl]-N-(pyrrolidin-3-yl)-1H-pyrrole-3-carboxamide]", "values": [{"measurement": "Ki", "setting": "5-HT7R", "result": 3.53, "unit": "µM"}, {"measurement": "Ki", "setting": "D2R", "result": 7.34, "unit": "µM"}, {"measurement": "AUC(0-t)", "setting": "[1]; brain", "result": 289, "unit": "ng·h/mL"}, {"measurement": "Cmax", "setting": "[1]; brain", "result": 51.7, "unit": "ng/g"}, {"measurement": "MRT", "setting": "[1]; brain", "result": 4.43, "unit": "h"}, {"measurement": "Tmax", "setting": "[1]; brain", "result": 5, "unit": "min"}, {"measurement": "AUC(0-t)", "setting": "[1]; plasma", "result": 3390, "unit": "ng·h/mL"}, {"measurement": "Cmax", "setting": "[1]; plasma", "result": 3500, "unit": "ng/mL"}, {"measurement": "MRT", "setting": "[1]; plasma", "result": 3.35, "unit": "h"}, {"measurement": "Tmax", "setting": "[1]; plasma", "result": 5, "unit": "min"}, {"measurement": "half-life", "setting": "[1]; plasma", "result": 4.95, "unit": "h"}]}, {"smiles": "O=C(N[C@@H]1CCNC1)c1ccn(S(=O)(=O)c2cccc(Cl)c2)c1-c1ccc(F)cc1", "note": "[Compound 27, (R)-2-(4-Fluorophenyl)-1-[(3-chlorophenyl)sulfonyl]-N-(pyrrolidin-3-yl)-1H-pyrrole-3-carboxamide]", "values": [{"measurement": "Ki", "setting": "5-HT7R", "result": 42, "unit": "µM"}, {"measurement": "Ki", "setting": "D2R", "result": 7.08, "unit": "µM"}, {"measurement": "Kp", "setting": "[1]; brain/plasma, 10 mg/kg intragastric, read-out: brain/plasma ratio", "result": 0.63}, {"measurement": "AUC(0-t)", "setting": "[1]; brain", "result": 812, "unit": "ng·h/mL"}, {"measurement": "Cmax", "setting": "[1]; brain", "result": 427, "unit": "ng/g"}, {"measurement": "MRT", "setting": "[1]; brain", "result": 3.02, "unit": "h"}, {"measurement": "Tmax", "setting": "[1]; brain", "result": 5, "unit": "min"}, {"measurement": "half-life", "setting": "[1]; brain", "result": 4.18, "unit": "h"}, {"measurement": "AUC(0-t)", "setting": "[1]; plasma", "result": 1290, "unit": "ng·h/mL"}, {"measurement": "Cmax", "setting": "[1]; plasma", "result": 1040, "unit": "ng/mL"}, {"measurement": "MRT", "setting": "[1]; plasma", "result": 2.72, "unit": "h"}, {"measurement": "Tmax", "setting": "[1]; plasma", "result": 5, "unit": "min"}, {"measurement": "half-life", "setting": "[1]; plasma", "result": 1.96, "unit": "h"}]}]}
